Experimental data reported in patent US20060252073A1, “Compositions and methods for the treatment of cancer” (Regents of the University of Michigan, priority 2005, published 2006).
Values joined by “and” are separate entries in the source; they are usually repeats but may differ in a detail not shown here. Equal values may be shown once.

Legend:
[1] = test system: Flk2^−Sca-1^+Lin^−c-kit^+CD48^− cells (HSCs); settings: mouse, in vivo
Source text: Flow cytometry and the isolation of hematopoietic stem cells (HSCs). Bone marrow cells were flushed from long bones with Hank's buffered salt solution without calcium or magnesium, supplemented with 2% heat-inactivated calf serum (GIBCO, Grand Island, N.Y.; HBSS^+). Cells were triturated and filtered through a nylon screen (45 μm, Sefar America, Kansas City, Mo.) to obtain a single cell suspension. Flk2^−Sca-1^+ Lineage^− c-kit^+ CD48^− HSCs and Thy1.1^low Sca-1^+ Mac-1^low CD4^low B220 MPPs were isolated as previously described (See, e.g., Christensen and Weissman, Proc Natl Acad Sci USA 98, 14541-6 (2001); Kiel et al., Cell 121, 1109-21 (2005); Morrison and Weissman, Immunity 1, 661-673 (1994)). For isolation of Flk2^−Sca-1^+ Lineage c-kit^+ CD48^− HSCs, whole bone marrow cells were incubated with unconjugated monoclonal antibodies to lineage markers including B220 (6B2), CD3 (KT31.1), CD4 (GK1.5), CD5 (53-7.3), CD8 (53-6.7), Gr-1 (8C5), Mac-1 (M1/70) and Terl19. Following dilution, pelleted cells were resuspended in anti-rat IgG-specific F(ab)2 conjugated to phycoerythrin (PE; Jackson ImmunoResearch, West Grove, Pa.). […] When CD45.2^+ HSCs were analyzed, CD45.2 (104-FITC; BD PharMingen) and CD48 (HM48-1-PE, eBioscience) were used. […]
Cell cycle analysis. BrdU incorporation was measured by flow-cytometry (BD PharMingen). […]

[2] = test system: established leukemias (AML and ALL); experiment: Rapamycin against established leukemias in mice transplanted with Pten fl/fl Mx-1-Cre bone marrow cells, starting 15 weeks after pIpC; format: in vivo; settings: daily 4 mg/kg from 15 weeks after pIpC
Protocol: (§1) Administration of Rapamycin.
(§2) Histopathology. Spleen, liver, and thymus samples were fixed in 10% neutral buffered formalin and paraffin embedded. Thin sections (5 μm) were cut on a microtome and stained with hematoxylin and eosin using standard protocols. Chloroacetate esterase staining was performed using a Leder stain kit (Sigma).
To test if rapamycin was effective against established leukemias, mice that had been transplanted with Pten^fl/fl Mx-1-Cre bone marrow cells were treated with daily injections of vehicle or rapamycin, beginning 15 weeks after pIpC.
Mice that had been transplanted with 1×10^6 Pten^fl/fl Mx-1-Cre donor (CD45.2^+) bone marrow cells along with 0.5×10^6 control (CD45.1^+) bone marrow cells were treated with daily injections of vehicle or rapamycin (4 mg/kg), starting 15 weeks after pIpC treatment.

Pten^fl/flMx-1-Cre mice = experiment: Rapamycin given immediately after Pten deletion (pIpC) in Pten fl/fl Mx-1-Cre mice; format: in vivo; settings: daily injections for 7 days after pIpC treatment
Protocol: Administration of polyinosine-polycytidine (pIpC) to induce Mx-1-Cre expression. pIpC (Sigma P-0913) was resuspended with DPBS at a concentration of 2 mg/ml and passed through a 0.22 uM filter (See, e.g., Mikkola et al., Nature 421, 54751 (2003)). Mice received 25 ug of pIpC/g of body mass every other day for 2 weeks.
as §1, §2
All 3 such mice in this experiment died within 3-4 weeks of pIpC treatment, with AML and ALL (FIG. 9c).

With `CO[C@H]1C[C@@H]2CC[C@@H](C)[C@@](O)(O2)C(=O)C(=O)N2CCCC[C@H]2C(=O)O[C@H]([C@H](C)C[C@@H]2CC[C@@H](O)[C@H](OC)C2)CC(=O)[C@H](C)/C=C(\C)[C@@H](O)[C@@H](OC)C(=O)[C@H](C)C[C@H](C)/C=C/C=C/C=C/1C` [Rapamycin] the “HSC numbers in control mice” value [1] was “without affecting”, the “proliferation of HSCs from control littermates” value [1] was “without affecting” and the “Bone marrow HSCs that were donor type, average” value ([2]; average of 3 mice) was 39 ± 6%. For the same compound, the “Bone marrow HSCs that were donor type” value ([2]; individual mice, Pten-deficient donor (CD45.2+) HSCs, 4 mg/kg) was 35% and 45% and 36% and the “bone marrow and spleen cellularity in control mice” value (Pten^fl/flMx-1-Cre mice) was “without significantly affecting”.
